Source: patent publication US10857139B2, “Substituted diazaspiroalkanes as androgen receptor modulators” (The Regents of the University of California, priority 2006, dated 2020)

Tests used:
[1] = Stability of intravenous formulation (DMSO/PBS solution) at room temperature; format: physicochemical; conditions: 10-25% DMSO, balance PBS
Experimental: A compound presently disclosed, for example, compound A51 or A52, can be in a formulation suitable for intravenous dosing. In an embodiment, the compound is dissolved in from about 10% to about 25% dimethylsulfoxide (DMSO). 1× phosphate buffered saline (PBS) is then mixed into the solution as the balance, and the solution is sonicated with a water bath sonicator until it is homogeneous.
At a compound concentration of 1.5 mg/mL, 5 minutes of sonication may be sufficient to dissolve the compound. At a compound concentration of 2 mg/ml, more than 5 minutes of sonication may be required to dissolve the compound and a polyethylene glcyol can be added to keep the compound in suspension. For example, 5 to 40% PEG-400 (a polyethylene glycol), such as, 5-10% PEG-400, can be added.

LNCaP-AR tumors = assay: LNCaP-AR xenograft tumor growth in SCID mice; format: in vivo; conditions: for effect on tumors in an in vivo assay: administered as described (iv or oral formulation); for effect on tumor: daily dose of 1 mg/kg; for effect on tumor / tumor cytotoxicity / tumor growth: SCID mice; for tumor cytotoxicity: daily dose of 25-50 mg/kg; for tumor growth: daily oral dose of 10 mg/kg
Experimental: All animal experiments were performed in compliance with the guidelines of the Animal Research Committee of the University of California at Los Angeles. Animals were bought from Taconic and maintained in a laminar flow tower in a defined flora colony. LNCaP-AR and LNCaP-vector cells were maintained in RPMI medium supplemented with 10% FBS. 10^6 cells in 100 μl of 1:1 Matrigel to RPMI medium were injected subcutaneously into the flanks of intact or castrated male SCID mice. Tumor size was measured weekly in three dimensions (length×width×depth) using calipers. Mice were randomized to treatment groups when tumor size reached approximately 100 mm^3. Drugs were given orally everyday at the dose of 10 mg/kg.
Other doses were also tried.
Prostate cancer cell lines were used for xenografts. For example, a LNCaP xenograft, LAPC4 xenograft, LAPC9 xenograft, and xenografts of the hormone refractory counterparts of these cell lines were made. Other cell lines included V-cap, CWR22 and LAPC4 cell lines. Two cell lines that over express the androgen receptor were generated, LNCaP AR and LAPC4 AR. […] Under androgen ablation, the LNCaP AR and LAPC4 AR lines continued to grow, thus behaving like hormone refractory cells.
CB17 SCID mice were used in the study.
Injections were made subcutaneously on the right flank of the mouse. […] In addition, because of the usage of Matrigel, injection of no more than 200 μl was found appropriate. Injection of 100-200 μl was found appropriate. Injecting too large a volume created leakage upon needle withdrawal.

Solubility in ethanol = format: physicochemical
Description: (§1) When administered to mice, hardening of the skin and skin irritation around the injection site was observed, and this was attributed to the use of DMSO.

androgen receptor (AR) [2] = biological target: T1, androgen receptor (AR) (Homo sapiens, UniProt P10275, T878A); assay: Secreted PSA induced by R1881 in hormone sensitive (HS) LNCaP cells (PSA ELISA); format: cell-based; conditions: FIG. 1, R1881, 5 days incubation
T1 construct: endogenous in cells; host or cells: LNCaP cells
T1 sequence (P10275 1-920 T878A): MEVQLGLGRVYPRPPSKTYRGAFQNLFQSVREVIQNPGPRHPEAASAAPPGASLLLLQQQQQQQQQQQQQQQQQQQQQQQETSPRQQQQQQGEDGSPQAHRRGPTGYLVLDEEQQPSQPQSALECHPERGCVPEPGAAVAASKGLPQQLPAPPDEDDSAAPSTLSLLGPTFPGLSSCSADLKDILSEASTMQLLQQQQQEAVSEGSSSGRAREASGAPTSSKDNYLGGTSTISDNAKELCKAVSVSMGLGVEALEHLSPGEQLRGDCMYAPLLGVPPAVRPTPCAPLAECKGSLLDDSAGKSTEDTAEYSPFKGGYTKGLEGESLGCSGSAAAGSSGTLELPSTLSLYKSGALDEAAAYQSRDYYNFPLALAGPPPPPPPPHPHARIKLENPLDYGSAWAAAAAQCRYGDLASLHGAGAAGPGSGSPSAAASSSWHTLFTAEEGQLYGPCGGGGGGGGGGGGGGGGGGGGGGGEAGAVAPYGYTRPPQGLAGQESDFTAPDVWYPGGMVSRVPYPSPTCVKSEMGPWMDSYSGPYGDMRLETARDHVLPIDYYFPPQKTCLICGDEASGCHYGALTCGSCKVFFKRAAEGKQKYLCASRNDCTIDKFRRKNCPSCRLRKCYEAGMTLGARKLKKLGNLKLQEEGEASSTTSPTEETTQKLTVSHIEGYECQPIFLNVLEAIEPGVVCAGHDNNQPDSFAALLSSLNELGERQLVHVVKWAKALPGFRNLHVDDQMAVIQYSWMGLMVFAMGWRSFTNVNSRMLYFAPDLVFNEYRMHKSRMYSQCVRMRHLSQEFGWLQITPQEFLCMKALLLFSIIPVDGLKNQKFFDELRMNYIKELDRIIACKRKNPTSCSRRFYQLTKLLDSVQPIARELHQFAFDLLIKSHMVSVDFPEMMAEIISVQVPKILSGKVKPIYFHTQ

androgen receptor (AR) [3] = assay: Secreted PSA induced by R1881 in hormone refractory (HR) LNCaP/AR cells (PSA ELISA); format: cell-based; conditions: FIG. 3, R1881, 5 days incubation
[4] = Suspension stability of oral formulation (DMSO/CMC/Tween 80/water); format: physicochemical; conditions: oral formulation: DMSO, CMC, Tween 80, water; about 1.5 mg/mL
Experimental: In an embodiment, the compound is dissolved in 100% DMSO.
Additional chemicals can be added, such as a carboxymethylcellulose, a polysorbate, or water. […] The solution is mechanically homogenized for at least 30 seconds.
That is, more than 10% DMSO was not required.

LNCaP cells = assay: MTS assay, growth inhibition of HS cancer cells; format: cell-based; conditions: FIG. 2
Experimental: The biological activity of the compound of formula II was measured by secreted levels of prostate specific antigen (PSA). It is well established that PSA levels are indicators of AR activities in prostate cancer. […] After 5 days of incubation, secreted PSA levels were assayed using PSA ELISA kits (American Qualex, San Clemente, Calif.) (See FIG. 1 and FIG. 3). The MTS assay was also used to examine the growth inhibition of the compounds of formula II (See FIG. 2).

[5] = Stability of the compounds in vivo with ethanol as solvent; conditions: mice
Description: as §1

Row | solubility in ethanol (Solubility in ethanol) | antagonist effect on HS cancer cells (secreted PSA) (androgen receptor (AR) [2]) | time the compound stays in suspension [4] | effect of ethanol on stability of the compounds in vivo [5] | SMILES | stability of solution [1] | effect on tumors in an in vivo assay (LNCaP-AR tumors) | effect on tumor (LNCaP-AR tumors) | tumor cytotoxicity (LNCaP-AR tumors) | tumor growth (LNCaP-AR tumors) | antagonist effect on HR cancer cells (secreted PSA) (androgen receptor (AR) [3]) | antagonist effect on HS cancer cells (MTS growth inhibition) (LNCaP cells) | Luciferase activity (LNCaP-AR tumors; FIG. 6, after 17 days of treatment)
1 | soluble in ethanol | antagonist effect | only a couple of hours | reduce the stability | Cc1ccc(N2C(=S)N(c3cnc(C#N)c(C(F)(F)F)c3)C(=O)C23CCC3)cc1 [A51, 5-(8-oxo-6-thioxo-5-(4-methylphenyl)-5,7-diazaspiro[3.4]oct-7yl)-3-trifluoromethylpyridine-2-carbonitrile] | stable at room temperature for at least a week | beneficial effect on tumors | mild effect | some tumor cytotoxicity | completely retard tumor growth | antagonist effect | antagonist effect | –
2 | soluble in ethanol | – | only a couple of hours | reduce the stability | CNC(=O)c1ccc(N2C(=S)N(c3cnc(C#N)c(C(F)(F)F)c3)C(=O)C23CCC3)cc1F [A52, 4-[7-(6-cyano-5-trifluoromethylpyridin-3-yl)-8-oxo-6-thioxo-5,7-diazaspiro[3,4]oct-5-yl]-2-fluoro-N-methylbenzamide] | stable at room temperature for at least a week | beneficial effect on tumors | mild effect | some tumor cytotoxicity | completely retard tumor growth | – | antagonist effect | disappearance of Luciferase activity
